This is an account of results in US8754226B2, “Piperidinyl-substituted lactams as GPR119 modulators” (Array BioPharma Inc., priority 2010, dated 2014).

This experiment has as its system modified version of the GPR119 receptor (94% identity to human receptor). The experiment in a line: cAMP production assay (LANCE cAMP kit, TR-FRET) in HEK-293 cells. The following applies: for cAMP production in HEK-293 cells: HEK-293 cells stably expressing modified GPR119, test compounds 0.2 nM to 10 μM, one-hour incubation at ambient temperature; for Fold over baseline: increase in cAMP relative to basal levels, agonist activity if 1.5-fold or greater. It is filed as cell-based. As to the method:
The assay utilized HEK-293 cells that stably express a modified version of the GPR119 receptor (94% identity to human receptor), under the control of a CMV promoter containing a tet-on element for tetracycline-inducible expression. GPR119 agonist-induced cyclic AMP (cAMP) production was measured in this cell line using the LANCE cAMP kit (Perkin Elmer, Waltham, Mass.). To generate a working stock of cells for the assay, cells were treated overnight with 1 μg/mL doxycycline at 37° C. in the presence of 5% CO2 to induce receptor expression. Cells were then harvested by enzymatic dissociation with 0.05% trypsin, resuspended in freezing medium (DMEM growth medium with 10% each of fetal bovine serum and DMSO), aliquoted and frozen at −80° C. On the day of the assay, frozen cells were thawed, washed 1× in PBS and resuspended in Hank's buffered salt solution (HBSS) containing 5 mM HEPES, 0.1% BSA and Alexa Fluor 647-conjugated anti-cAMP antibody (diluted 1:100). The cell suspension was then transferred to a Proxiplate Plus white 384-well assay plate (Perkin-Elmer) at 2000 cells/well. Test compounds at final concentrations ranging from 0.2 nM to 10 μM were added to the assay plate, followed by a one-hour incubation at ambient temperature (volume=10 μL/well). DMSO concentration was held constant at 0.5%. After incubation with test compounds, 10 μL of a detergent buffer containing a biotinylated cAMP/Europium-conjugated streptavidin complex (Europium-labeled cAMP tracer) were added to each well on the assay plate, followed by a 2-hour incubation at ambient temperature. During this incubation cAMP released from lysed cells competes with the Europium-labeled cAMP tracer for binding to the Alexa Fluor 647-conjugated antibody. […] Cellular cAMP levels were then determined by interpolation of raw signal data using a cAMP standard curve. Compounds were determined to have agonist activity if they stimulated a 1.5-fold or greater increase in cAMP relative to basal levels.
On the technique in general: Changes in cAMP serve as a functional read-out for many G protein-coupled receptors.

Each structure is given as a SMILES string. Structures can show the parent of a compound that is named as a salt.

On to `Cn1nccc1-c1cnc(N2CCC(N3CC[C@H](Nc4ccc(S(C)(=O)=O)cc4F)C3=O)CC2)nc1` [Example 32, (S)-3-(2-fluoro-4-(methylsulfonyl)phenylamino)-1-(1-(5-(1-methyl-1H-pyrazol-5-yl)pyrimidin-2-yl)piperidin-4-yl)pyrrolidin-2-one], for which the “cAMP production in HEK-293 cells” value came out at 10.9 nmol and the Fold over baseline came out at 2.4.

As to `Cn1cc(-c2cnc(N3CCC(N4CC[C@H](Nc5ccc(S(C)(=O)=O)cc5F)C4=O)CC3)nc2)cn1` [Example 33, (S)-3-(2-fluoro-4-(methylsulfonyl)phenylamino)-1-(1-(5-(1-methyl-1H-pyrazol-4-yl)pyrimidin-2-yl)piperidin-4-yl)pyrrolidin-2-one], the “cAMP production in HEK-293 cells” value is 15.9 nmol and the Fold over baseline came to 3.3.

Regarding `CCc1cnc(N2CCC(N3CC[C@H](Nc4ccc(S(=O)(=O)CC)cc4F)C3=O)CC2)nc1` [Example 34, (S)-1-(1-(5-ethylpyrimidin-2-yl)piperidin-4-yl)-3-(4-(ethylsulfonyl)-2-fluorophenylamino)pyrrolidin-2-one], the “cAMP production in HEK-293 cells” value turned out to be 11.4 nmol and the Fold over baseline was found to be 2.8.

As for `CCc1cnc(N2CCC(N3CC[C@H](Nc4cc(C)c(S(C)(=O)=O)cc4F)C3=O)CC2)nc1` [Example 35, (S)-1-(1-(5-ethylpyrimidin-2-yl)piperidin-4-yl)-3-(2-fluoro-5-methyl-4-(methylsulfonyl)phenylamino)pyrrolidin-2-one], the “cAMP production in HEK-293 cells” value was 14.5 nmol and the Fold over baseline is listed as 4.1.

Consider `CCc1cnc(N2CCC(N3CC[C@H](Nc4cc5c(cc4Cl)C(=O)CCO5)C3=O)CC2)nc1` [Example 36], for which the “cAMP production in HEK-293 cells” value was determined as 17.4 nmol and the Fold over baseline turned out to be 3.2.

For the molecule `CCc1cnc(N2CCC(N3CC[C@H](N(C)c4cc(F)c(S(C)(=O)=O)cc4F)C3=O)CC2)nc1` [Example 37, (S)-3-((2,5-difluoro-4-(methylsulfonyl)phenyl)(methyl)amino)-1-(1-(5-ethylpyrimidin-2-yl)piperidin-4-yl)pyrrolidin-2-one trifluoroacetate], the “cAMP production in HEK-293 cells” value stood at 23.4 nmol and the Fold over baseline is reported as 3.4.

On to `CS(=O)(=O)c1ccc(O[C@@H]2C(=O)N(C3CCN(c4cnc(Cl)cn4)CC3)C[C@@H]2O)c(F)c1` [Example 39, (3S,4S)-1-(1-(5-chloropyrazin-2-yl)piperidin-4-yl)-3-(2-fluoro-4-(methylsulfonyl)phenoxy)-4-hydroxypyrrolidin-2-one], for which the “cAMP production in HEK-293 cells” value was found to be 20.6 nmol and the Fold over baseline is recorded as 3.7.

As for `CCc1cnc(N2CCC(N3CCC[C@H](Nc4ccc(S(C)(=O)=O)cc4F)C3=O)CC2)nc1` [Example 40, (S)-1′-(5-ethylpyrimidin-2-yl)-3-(2-fluoro-4-(methylsulfonyl)phenylamino)-[1,4′-bipiperidin]-2-one], the “cAMP production in HEK-293 cells” value came to 12.4 nmol and the Fold over baseline came to 2.2.

On to `CS(=O)(=O)c1ccc(N[C@H]2CCCN(C3CCN(c4ncc(C(F)(F)F)cn4)CC3)C2=O)c(F)c1` [Example 41, (S)-3-(2-fluoro-4-(methyl-sulfonyl)phenylamino)-1′-(5-(trifluoromethyl)pyrimidin-2-yl)-1,4′-bipiperidin-2-one], for which the “cAMP production in HEK-293 cells” value was 7.4 nmol and the Fold over baseline was found to be 1.7.

Take `CCCc1cnc(N2CCC(N3CCC[C@H](Nc4ccc(S(C)(=O)=O)cc4F)C3=O)CC2)nc1` [Example 42, (S)-3-(2-fluoro-4-(methylsulfonyl)phenylamino)-1′-(5-propylpyrimidin-2-yl)-[1,4′-bipiperidin]-2-one]: the “cAMP production in HEK-293 cells” value was determined as 5.7 nmol and the Fold over baseline stood at 2.1.

Take `Cc1cnc(N2CCC(N3CCC[C@H](Nc4ccc(S(C)(=O)=O)cc4F)C3=O)CC2)nc1` [Example 43, (S)-3-(2-fluoro-4-(methylsulfonyl)phenylamino)-1′-(5-methylpyrimidin-2-yl)-[1,4′-bipiperidin]-2-one]: the “cAMP production in HEK-293 cells” value is 6.9 nmol and the Fold over baseline is 1.7.

As to `CS(=O)(=O)c1ccc(N[C@H]2CCCN(C3CCN(c4cnc(Cl)cn4)CC3)C2=O)c(F)c1` [Example 44, (S)-1′-(5-chloropyrazin-2-yl)-3-(2-fluoro-4-(methylsulfonyl)phenylamino)-[1,4′-bipiperidin]-2-one], the “cAMP production in HEK-293 cells” value amounted to 20.4 nmol and the Fold over baseline came out at 4.1.

Turning to `CCc1cnc(N2CCC(N3CCC[C@H](Nc4cc(F)c(S(C)(=O)=O)cc4F)C3=O)CC2)nc1` [Example 45, (S)-3-(2,5-difluoro-4-(methylsulfonyl)phenylamino)-1′-(5-ethylpyrimidin-2-yl)-[1,4′-bipiperidin]-2-one], the “cAMP production in HEK-293 cells” value came to 13.3 nmol and the Fold over baseline came to 2.3.

In the case of `CCCCCCCCCCc1cnc(N2CCC(N3CCC[C@H](Nc4cc(F)c(S(C)(=O)=O)cc4F)C3=O)CC2)nc1` [Example 46, (S)-1′-(5-decylpyrimidin-2-yl)-3-(2,5-difluoro-4-(methylsulfonyl)phenylamino)-[1,4′-bipiperidin]-2-one], the “cAMP production in HEK-293 cells” value worked out at 10.7 nmol and the Fold over baseline came out at 2.2.

Turning to `CS(=O)(=O)c1cc(F)c(N[C@H]2CCCN(C3CCN(c4ncc(I)cn4)CC3)C2=O)cc1F` [Example 47, (S)-3-(2,5-difluoro-4-(methylsulfonyl)phen-ylamino)-1′-(5-iodopyrimidin-2-yl)-[1,4′-bipiperidin]-2-one], the “cAMP production in HEK-293 cells” value worked out at 9.3 nmol and the Fold over baseline is recorded as 2.0.

For `CCc1cnc(N2CCC(N3CCC[C@H](Nc4cc(Cl)c(S(C)(=O)=O)cc4F)C3=O)CC2)nc1` [Example 48, (S)-3-(5-chloro-2-fluoro-4-(methyl-sulfonyl)phenylamino)-1′-(5-ethylpyrimidin-2-yl)-[1,4′-bipiperidin]-2-one], the “cAMP production in HEK-293 cells” value was 16.9 nmol and the Fold over baseline is recorded as 3.0.

With `CCc1cnc(N2CCC(N3CCC[C@H](Nc4c(F)cc(S(C)(=O)=O)cc4F)C3=O)CC2)nc1` [Example 49, (S)-3-(2,6-difluoro-4-(methylsulfonyl)phen-ylamino)-1′-(5-ethylpyrimidin-2-yl)-[1,4′-bipiperidin]-2-one], the “cAMP production in HEK-293 cells” value is 10.6 nmol and the Fold over baseline is given as 2.2.

For `CS(=O)(=O)c1cc(F)c(N[C@H]2CCCN(C3CCN(c4ncc(Cl)cn4)CC3)C2=O)cc1F` [Example 50, (S)-1′-(5-chloropyrimidin-2-yl)-3-(2,5-difluoro-4-(methylsulfonyl)phenylamino)-[1,4′-bipiperidin]-2-one], the “cAMP production in HEK-293 cells” value came out at 11.4 nmol and the Fold over baseline is 2.3.

Turning to `CS(=O)(=O)c1cc(F)c(N[C@H]2CCCN(C3CCN(c4ncc(C#N)cn4)CC3)C2=O)cc1F` [Example 51, (S)-2-(3-(2,5-difluoro-4-(methylsulfonyl)phenylamino)-2-oxo-[1,4′-bipiperidin]-1′-yl)pyrimidine-5-carbonitrile], the “cAMP production in HEK-293 cells” value amounted to 8.8 nmol and the Fold over baseline was 2.7.

As for `CS(=O)(=O)c1cc(F)c(N[C@H]2CCCN(C3CCN(c4ccc(Cl)nn4)CC3)C2=O)cc1F` [Example 52, (S)-1′-(6-chloropyridazin-3-yl)-3-(2,5-difluoro-4-(methylsulfonyl)phenylamino)-[1,4′-bipiperidin]-2-one], the “cAMP production in HEK-293 cells” value was found to be 19.6 nmol and the Fold over baseline amounted to 4.6.

Regarding `CS(=O)(=O)c1cc(F)c(N[C@H]2CCCN(C3CCN(c4ccc(C(F)(F)F)cn4)CC3)C2=O)cc1F` [Example 54, (S)-3-(2,5-difluoro-4-(methylsulfonyl)phen-ylamino)-1′-(5-(trifluoromethyl)pyridin-2-yl)-[1,4′-bipiperidin]-2-one], the “cAMP production in HEK-293 cells” value is 7.3 nmol and the Fold over baseline was determined as 2.3.

Take `CCc1cnc(N2CCC(N3CCC[C@H](Nc4ccc(S(C)(=O)=O)cc4C(F)(F)F)C3=O)CC2)nc1` [Example 55, (S)-1′-(5-ethylpyrimidin-2-yl)-3-(4-(methylsulfonyl)-2-(trifluoromethyl)phenylamino)-[1,4′-bipiperidin]-2-one]: the “cAMP production in HEK-293 cells” value stood at 9.3 nmol and the Fold over baseline stood at 2.6.

Turning to `CCc1cnc(N2CCC(N3CCC[C@H](Nc4ccc(S(C)(=O)=O)c(Cl)c4)C3=O)CC2)nc1` [Example 56, (S)-3-(3-chloro-4-(methylsulfonyl)phen-ylamino)-1′-(5-ethylpyrimidin-2-yl)-[1,4′-bipiperidin]-2-one], the “cAMP production in HEK-293 cells” value is 18.0 nmol and the Fold over baseline is recorded as 2.4.
